Data reported in patent US5128359A, “Benzimidazole and azabenzimidazole derivatives which are thromboxane receptor antagonists, their methods of preparation” (Laboratoires UPSA, priority 1990, dated 1992).

Target: T1, TXA2 receptors of human platelets (Homo sapiens, UniProt P21731)
T1 construct: Human platelets incubate in the presence of a single concentration; endogenous in cells; host or cells: human platelets
T1 sequence (P21731 1-343): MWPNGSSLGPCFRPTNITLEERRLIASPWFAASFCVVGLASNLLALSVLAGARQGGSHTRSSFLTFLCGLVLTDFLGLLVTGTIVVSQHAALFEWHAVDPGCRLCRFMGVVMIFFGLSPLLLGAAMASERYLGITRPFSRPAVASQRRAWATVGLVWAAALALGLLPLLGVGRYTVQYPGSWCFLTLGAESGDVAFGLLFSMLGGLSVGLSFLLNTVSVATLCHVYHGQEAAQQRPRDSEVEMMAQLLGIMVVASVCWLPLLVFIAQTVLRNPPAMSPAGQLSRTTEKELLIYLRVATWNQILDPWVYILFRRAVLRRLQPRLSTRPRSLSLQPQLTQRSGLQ
Assay: displacement of radioligand [^125 I]PTA-OH specifically bound to the TXA2 receptors of human platelets
Format: binding
Conditions: for inhibition at 10 µM / inhibition at 0.1 µM: 0.5 h, 30 minutes at 37° C; for inhibition at 10 µM: 1E-5 M competing agent, read-out: % displacement, Concentration 1E-5 M; for inhibition at 0.1 µM: 1E-7 M competing agent, read-out: % displacement, Concentration 1E-7 M; for Ki: determined according to the formula of CHENG and PRUSOFF, read-out: Ki (inhibition constant)
Description: The affinity of the products of the Examples described for thromboxane A2 receptors is evaluated by the technique of displacing a radioligand specifically bound to the TXA2 receptors of human platelets. […] The reaction is completed by the addition of a buffer, followed by rapid filtration through […] filters. […] The results are expressed, for the doses tested, as the percentage displacement of the radioligand specifically bound to the TXA2 receptors of human platelets.

SMILES | inhibition at 10 µM [%] | inhibition at 0.1 µM [%] | Ki [nM]
CC(C)(CC(=O)O)Cc1nc2cc(F)ccc2n1Cc1ccc(Br)cc1 [Example 109, 4-[1-(4-Bromobenzyl)-5-fluorobenzimidazol-2-yl]-3,3-dimethylbutanoic acid] | 92 | 95 | 
CSc1ccc(Cn2c(CC(C)(C)CC(=O)O)nc3cc(Cl)ccc32)cc1 [Example 117, 4-[1-(4-Methylthiobenzyl)-5-chlorobenzimidazol-2-yl]-3,3-dimethylbutanoic acid] | 89 | 87 | 5.8
C[S+]([O-])c1ccc(Cn2c(CC(C)(C)CC(=O)O)nc3cc(Cl)ccc32)cc1 (stereo not shown) [Example 118, 4-[1-(4-Methylsulfoxybenzyl)-5-chlorobenzimidazol-2-yl]-3,3-dimethylbutanoic acid] | 92 | 54 | 
CC(C)(CC(=O)O)Cc1nc2cc(Cl)ccc2n1Cc1ccc(S(C)(=O)=O)cc1 [Example 119, 4-[1-(4-Methylsulfonylbenzyl)-5-chlorobenzimidazol-2-yl]-3,3-dimethylbutanoic acid] | 82 | 61 | 
CC(C)(CC(=O)O)Cc1nc2cc(Cl)ccc2n1Cc1ccc(Cl)cc1F [Example 123, 4-[1-(2-Fluoro-4-chlorobenzyl)-5-chlorobenzimidazol-2-yl]3,3-dimethylbutanoic acid] | 87 | 77 | 
CC(C)(CC(=O)O)Cc1nc2cc(Br)ccc2n1Cc1ccc(Cl)cc1 [Example 127, 4-[1 (4-Chlorobenzyl)-5-bromobenzimidazol-2-yl]-3,3-dimethylbutanoic acid] | 67 | 38 | 
COc1ccc(Cn2c(CC(C)(C)CC(=O)O)nc3cc(F)ccc32)cc1 [Example 131, 4-[1-(4-Methoxybenzyl)-5 fluorobenzimidazol-2-yl]-3,3-dimethylbutanoic acid] | 100 | 79 | 
CC(C)(CC(=O)O)Cc1nc2cc(Cl)ccc2n1Cc1ccc(Br)cc1F [Example 135, 4-[1-(2-Fluoro-4-bromobenzyl)-5-chlorobenzimidazol-2-yl]3,3-dimethylbutanoic acid] | 95 | 74 | 
CC(C)(CC(=O)O)Cc1nc2cc(Cl)ccc2n1Cc1ccc(Br)cc1 [Example 139, 4-[1 (4-Bromobenzyl)-5-chlorobenzimidazol-2-yl]-3,3-dimethylbutanoic acid] | 100 | 98 | 13
CC(C)(CC(=O)O)Cc1nc2cc(Cl)ccc2n1Cc1ccc2ccccc2c1 [Example 143, 4-[1-(Naphth-2-ylmethyl)-5-chlorobenzimidazol-2-yl]-3,3-dimethylbutanoic acid] | 89 | 77 | 
CC(C)(CC(=O)O)Cc1nc2cc(F)ccc2n1Cc1ccc2ccccc2c1 [Example 147, 4-[1(Naphth-2-ylmethyl)-5-fluorobenzimidazol-2-yl]-3,3-dimethylbutanoic acid] | 93 | 91 | 
O=C(O)CC1(Cc2nc3cc(F)ccc3n2Cc2ccc(Cl)cc2)CC1 [Example 150, [1-[1-(4-Chlorobenzyl)-5-fluorobenzimidazol-2-yl]methylcycloprop-1-yl]acetic acid] | 98 | 80 | 
CC(C)(CCC(=O)O)Cc1nc2cc(F)ccc2n1Cc1ccc(Cl)cc1 [Example 158, 5-[1-(4-Chlorobenzyl)-5-fluorobenzimidazol-2-yl]-4,4-dimethylpentanoic acid] | 87 | 56 | 
